Experimental data as given in US12624024B2, “EP2 antagonist compounds” (Reservoir Neuroscience, Inc., priority 2021, dated 2026).

Columns and labels:
EP2 receptor = target: T1, EP2 receptor (Homo sapiens, UniProt P43116); experiment: EP2 Potency Assay (cAMP TR-FRET, CHO-K1 cells transfected with EP2 receptor, PGE2 at EC80); format: cell-based; details: CHO-K1 cells expressing EP2, prostaglandin E2 at EC80, read-out: EP2 Potency (IC50 category)
T1 construct: expressed in transfected cells; host or cells: CHO-K1 cells (ATCC), transient transfection with FuGENE 6
Procedure, shortened: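 CHO-K1 cells transiently transfected with EP2 and seeded 24 h after transfection. IC50 from curve fit of percent inhibition versus concentration.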

[1] = Human Hepatocyte Stability; format: in vitro ADME; details: human hepatocytes 0.5×10^6 cells/mL, 120 min; for half-life at 1 μM: read-out: T1/2 (hepatic); for microsomal CLint at 1 μM: read-out: in vitro CLint (hepatic)
Description: The tested compound was incubated in duplicate with incubation media (Williams' Medium E with 1× GlutaMAX) containing human hepatocytes (0.5×10^6 cells/mL). These incubations were carried out at a final test concentration of 1 μM over a total incubation period of 120 minutes. Samples were taken at 0, 15, 30, 60, 90 and 120 min and the reaction was terminated by addition of acetonitrile containing internal standard (100 nM alprazolam, 200 nM labetalol, 200 nM caffeine and 200 nM diclofenac). Verapamil was used as the positive control in this study. The samples were analyzed by UPLC-MS/MS to determine the concentration of the tested compound and the percentage remaining, intrinsic clearance (in vitro CLint) and half-life (t½) values were calculated.
Chromatographic analyses were performed on a Shimadzu UPLC apparatus (Kyoto, Japan) consisting of a gradient pump (model LC-30AD), an automatic injector (model HTC PAL System) and an on-line degasser (model DGU-20A5R). Detection was a triple quadrupole tandem mass spectrometer equipped with a turbo ion spray interface (API 4000/Triple Quad 4500/Triple Quad 5500/Triple Quad 6500). Data acquisition and integration were carried out with LC-MS software (Analyst 1.6) linked directly to the LC-MS/MS system. Chromatographic separations were achieved on a XSelect Hss T3 2.5μ (2.1×30 mm) Column. The mobile phase was 0.1% formic acid in water (A) and 0.1% formic acid in acetonitrile (B). The flow rate was 1.0 mL/min and column was maintained at 40° C.
Half-life (T1/2) data is measured in minutes, and in Table B2, the data is grouped into categories of by the following rules: • T1/2 (hepatic): A=200+; B=100 to 200; C=50 to 100; and D<50.
In vitro clearance (CLint) data is measured in μL/min/mg prot, and in Table B3, the data is grouped into categories of by the following rules: • CLint (microsomal): A<5; B=5 to 10; C=10 to 20; and D=20+.

T1 sequence (P43116 whole entry): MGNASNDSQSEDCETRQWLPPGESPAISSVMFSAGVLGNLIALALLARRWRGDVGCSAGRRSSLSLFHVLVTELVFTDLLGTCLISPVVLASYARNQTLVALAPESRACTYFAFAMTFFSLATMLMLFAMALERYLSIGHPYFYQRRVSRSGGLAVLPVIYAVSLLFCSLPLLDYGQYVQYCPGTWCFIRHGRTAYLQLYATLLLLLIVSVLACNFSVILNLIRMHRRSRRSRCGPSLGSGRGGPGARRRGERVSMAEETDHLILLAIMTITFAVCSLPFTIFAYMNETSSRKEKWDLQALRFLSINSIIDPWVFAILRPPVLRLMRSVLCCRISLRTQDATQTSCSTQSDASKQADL

| IC50 (EP2 receptor) [nM] | half-life at 1 μM [1] [h] | microsomal CLint at 1 μM [1] [µL/min/mg] | SMILES |
| --- | --- | --- | --- |
| 100 to 500 | 1.67 to 3.33 | 10 to 20 | COc1ncc(CN2CCOc3c(Cl)cc(-n4ccc5c(F)c(F)ccc54)cc3C2)cn1 [Compound 25] |
| 100 to 500 | > 3.33 | 5 to 10 | COCc1ncc(CN2CCOc3c(Cl)cc(-n4ccc5cc(F)ccc54)cc3C2)cn1 [Compound 142] |
| < 100 | > 3.33 | < 5 | O=C(O)c1ncc(CN2CCOc3c(Cl)cc(-n4ccc5cc(F)ccc54)cc3C2)cn1 [Compound 144, 5-{[9-chloro-7-(5-fluoroindol-1-yl)-3,5-dihydro-2H-1,4-benzoxazepin-4-yl]methyl}pyrimidine-2-carboxylic acid] |
| < 100 | 1.67 to 3.33 | 5 to 10 | Cc1[nH]c(=O)ncc1CN1CCOc2c(Cl)cc(-n3ccc4cc(F)ccc43)cc2C1 [Compound 156] |
| 1000 to 5000 | – | – | Nc1ccc(CN2CCOc3c(Cl)cc(-n4ccc5cc(F)ccc54)cc3C2)nn1 [Compound 167] |
| > 5000 | – | – | CC(C)(C)OC(=O)Nc1ccc(CN2CCOc3c(Cl)cc(-n4ccc5cc(F)ccc54)cc3C2)nn1 [Compound 168] |
| < 100 | 1.67 to 3.33 | 5 to 10 | O=c1cc(CN2CCOc3c(Cl)cc(-n4ccc5cc(F)ccc54)cc3C2)cn[nH]1 [Compound 169, 5-{[9-chloro-7-(5-fluoroindol-1-yl)-3,5-dihydro-2H-1,4-benzoxazepin-4-yl]methyl}-2H-pyridazin-3-one] |
| > 5000 | – | – | CC(C)(C)OC(=O)Nc1cnc(CN2CCOc3c(Cl)cc(-n4ccc5cc(F)ccc54)cc3C2)cn1 [Compound 171] |
| 1000 to 5000 | – | – | COc1cnc(CN2CCOc3c(Cl)cc(-n4ccc5cc(F)ccc54)cc3C2)cn1 [Compound 172] |
| 1000 to 5000 | – | – | Fc1ccc2c(ccn2-c2cc(Cl)c3c(c2)CN(Cc2cnc(Cl)cn2)CCO3)c1 [Compound 173] |
| 100 to 500 | – | – | O=c1ccc(CN2CCOc3c(Cl)cc(-n4ccc5cc(F)ccc54)cc3C2)c[nH]1 [Compound 175] |
| 1000 to 5000 | – | – | O=c1cc[nH]cc1CN1CCOc2c(Cl)cc(-n3ccc4cc(F)ccc43)cc2C1 [Compound 176] |
| > 5000 | – | – | CC(C)(C)OC(=O)Nc1cc(CN2CCOc3c(Cl)cc(-n4ccc5cc(F)ccc54)cc3C2)ccn1 [Compound 178] |
| 1000 to 5000 | – | – | Nc1cc(CN2CCOc3c(Cl)cc(-n4ccc5cc(F)ccc54)cc3C2)ccn1 [Compound 179, 4-{[9-chloro-7-(5-fluoroindol-1-yl)-3,5-dihydro-2H-1,4-benzoxazepin-4-yl]methyl}pyridin-2-amine] |
| 1000 to 5000 | – | – | CNc1cc(CN2CCOc3c(Cl)cc(-n4ccc5cc(F)ccc54)cc3C2)ccn1 [Compound 180, 4-{[9-chloro-7-(5-fluoroindol-1-yl)-3,5-dihydro-2H-1,4-benzoxazepin-4-yl]methyl}-N-methylpyridin-2-amine] |
| 1000 to 5000 | – | – | CN(C)c1cc(CN2CCOc3c(Cl)cc(-n4ccc5cc(F)ccc54)cc3C2)ccn1 [Compound 181, 4-{[9-chloro-7-(5-fluoroindol-1-yl)-3,5-dihydro-2H-1,4-benzoxazepin-4-yl]methyl}-N,N-dimethylpyridin-2-amine] |
| 1000 to 5000 | – | – | Fc1ccc2c(ccn2-c2cc(Cl)c3c(c2)CN(Cc2ccnc(NC4COC4)c2)CCO3)c1 [Compound 182, 4-{[9-chloro-7-(5-fluoroindol-1-yl)-3,5-dihydro-2H-1,4-benzoxazepin-4-yl]methyl}-N-(oxetan-3-yl)pyridin-2-amine] |
| 100 to 500 | – | – | OCc1cc(CN2CCOc3c(Cl)cc(-n4ccc5cc(F)ccc54)cc3C2)ccn1 [Compound 183] |
| 1000 to 5000 | – | – | NCc1cc(CN2CCOc3c(Cl)cc(-n4ccc5cc(F)ccc54)cc3C2)ccn1 [Compound 184, 1-(4-{[9-chloro-7-(5-fluoroindol-1-yl)-3,5-dihydro-2H-1,4-benzoxazepin-4-yl]methyl}pyridin-2-yl)methanamine] |
| 100 to 500 | > 3.33 | < 5 | O=C(O)c1cc(CN2CCOc3c(Cl)cc(-n4ccc5cc(F)ccc54)cc3C2)ccn1 [Compound 185, 4-{[9-chloro-7-(5-fluoroindol-1-yl)-3,5-dihydro-2H-1,4-benzoxazepin-4-yl]methyl}pyridine-2-carboxylic acid] |
| 100 to 500 | – | – | COC(=O)c1cc(CN2CCOc3c(Cl)cc(-n4ccc5cc(F)ccc54)cc3C2)ccn1 [Compound 186] |
| > 5000 | – | – | Fc1ccc2c(ccn2-c2cc(Cl)c3c(c2)CN(Cc2ccnc(C4CNC4)c2)CCO3)c1 [Compound 188, 4-{[2-(azetidin-3-yl)pyridin-4-yl]methyl}-9-chloro-7-(5-fluoroindol-1-yl)-3,5-dihydro-2H-1,4-benzoxazepine; trifluoroacetic acid] |
| 100 to 500 | 0.833 to 1.67 | > 20 | Fc1ccc2c(ccn2-c2cc(Cl)c3c(c2)CN(Cc2cc[nH]c(=S)c2)CCO3)c1 [Compound 189, 4-{[9-chloro-7-(5-fluoroindol-1-yl)-3,5-dihydro-2H-1,4-benzoxazepin-4-yl]methyl}-1H-pyridine-2-thione] |
| 1000 to 5000 | – | – | Fc1ccc2c(ccn2-c2cc(Cl)c3c(c2)CN(Cc2ccnc(Cl)c2F)CCO3)c1 [Compound 190] |

| IC50 (EP2 receptor) [nM] | half-life at 1 μM [1] [h] | microsomal CLint at 1 μM [1] [µL/min/mg] | SMILES |
| --- | --- | --- | --- |
| 1000 to 5000 | – | – | Cc1c(CN2CCOc3c(Cl)cc(-n4ccc5cc(F)ccc54)cc3C2)ccnc1Cl [Compound 191] |
| 100 to 500 | – | – | Fc1ccc2c(ccn2-c2cc(Cl)c3c(c2)CN(Cc2ccnc(Cl)c2C(F)(F)F)CCO3)c1 [Compound 192] |
| < 100 | 0.833 to 1.67 | 10 to 20 | O=c1[nH]ccc(CN2CCOc3c(Cl)cc(-n4ccc5cc(F)ccc54)cc3C2)c1F [Compound 193] |
| > 5000 | – | – | O=c1[nH]ccc(CN2CCOc3c(Cl)cc(-n4ccc5cc(F)ccc54)cc3C2)c1C(F)(F)F [Compound 195] |
| > 5000 | – | – | COc1cc(CN2CCOc3c(Cl)cc(-n4ccc5cc(F)ccc54)cc3C2)cc(OC)n1 [Compound 197] |
| 1000 to 5000 | – | – | O=C1NN=CC1CN1CCOc2c(Cl)cc(-n3ccc4cc(F)ccc43)cc2C1 (stereo not shown) [Compound 199] |
| > 5000 | – | – | Fc1ccc2c(ccn2-c2cc(Cl)c3c(c2)CN(Cc2cncnc2)C2(CC2)CO3)c1 [Compound 218] |
| > 5000 | – | – | N#Cc1cccc(CN2Cc3cc(-n4ccc5cc(F)ccc54)cc(Cl)c3OCC23CC3)c1 [Compound 220] |
| > 5000 | – | – | COc1cc(CN2CCOc3c(Cl)cc(-n4ccc5cc(F)ccc54)c(C)c3C2)ccn1 [Compound 221] |
| > 5000 | – | – | Fc1ccc2c(ccn2-c2cc(Cl)c3c(c2)CN(Cc2cncnc2)CC3)c1 [Compound 222] |
| > 5000 | – | – | COc1ncccc1CN1CCc2c(Cl)cc(-n3ccc4cc(F)ccc43)cc2C1 [Compound 223] |
| > 5000 | – | – | COc1cc(CN2CCOc3c(Cl)cc(-n4ccc5cc(F)ccc54)cc32)ccn1 [Compound 224] |
| 100 to 500 | – | – | [2H]C1([2H])c2cc(-n3ccc4cc(F)ccc43)cc(Cl)c2OC([2H])([2H])C([2H])([2H])N1Cc1cc[nH]c(=O)c1 [Compound 225] |
| 100 to 500 | – | – | [2H]C1([2H])c2cc(-n3ccc4cc(F)ccc43)cc(Cl)c2OCCN1Cc1cc[nH]c(=O)c1 [Compound 226] |
| < 100 | – | – | [2H]C1([2H])Oc2c(Cl)cc(-n3ccc4cc(F)ccc43)cc2CN(Cc2cc[nH]c(=O)c2)C1([2H])[2H] [Compound 227] |
| > 5000 | – | – | CC(c1cc[nH]c(=O)c1)N1CCOc2c(Cl)cc(-n3ccc4cc(F)ccc43)cc2C1 (stereo not shown) [Compound 228] |
| > 5000 | – | – | O=c1cc(CN2Cc3cc(-n4ccc5cc(F)ccc54)cc(Cl)c3OCC23COC3)cc[nH]1 [Compound 229] |
| > 5000 | – | – | O=c1cc(CN2Cc3cc(-n4ccc5cc(F)ccc54)cc(Cl)c3OCC23CC3)cc[nH]1 [Compound 230] |
| > 5000 | – | – | O=c1cc(CN2Cc3cc(-n4ccc5cc(F)ccc54)cc(Cl)c3OCC2C2CC2)cc[nH]1 (stereo not shown) [Compound 231] |
| 500 to 1000 | – | – | CC1c2cc(-n3ccc4cc(F)ccc43)cc(Cl)c2OCCN1Cc1cc[nH]c(=O)c1 (stereo not shown) [Compound 235] |
| 1000 to 5000 | – | – | Cc1c(-n2ccc3cc(F)ccc32)cc(Cl)c2c1CN(Cc1cc[nH]c(=O)c1)CCO2 [Compound 238] |
| 1000 to 5000 | – | – | COCC1COc2c(Cl)cc(-n3ccc4cc(F)ccc43)cc2CN1Cc1cc[nH]c(=O)c1 (stereo not shown) [Compound 239] |
| > 5000 | – | – | O=c1cc(CN2CCc3c(Cl)cc(-n4ccc5cc(F)ccc54)cc3C2)cc[nH]1 [Compound 240] |
| > 5000 | – | – | O=c1cc(CN2CCOc3c(Cl)cc(-n4ccc5cc(F)ccc54)cc32)cc[nH]1 [Compound 241] |
